Test results published in article PMC12331786, “Component characterization of Smilax glabra Roxb., and its inhibitory activity against Helicobacter pylori through targeted suppression of its secreted urease” (Frontiers in Cellular and Infection Microbiology, 2025).
Values after ≈ are worked out from the molar mass of the structure shown. Where two headings read alike, the source gives them in different places.

How the values were obtained:
H. pylori urease (HPU) [1] = molecular target: T1, H. pylori urease (HPU) (Helicobacter pylori, UniProt P69996); assay: biochemical; type: biochemical, H. pylori strain ATCC 43504
T1 construct: The resulting HPU preparation represents a crude enzyme extract; endogenous in cells; host or cells: H. pylori strain ATCC 43504 (crude enzyme extract, method of Matsubara et al. 2003)
T1 sequence (P14916 whole entry): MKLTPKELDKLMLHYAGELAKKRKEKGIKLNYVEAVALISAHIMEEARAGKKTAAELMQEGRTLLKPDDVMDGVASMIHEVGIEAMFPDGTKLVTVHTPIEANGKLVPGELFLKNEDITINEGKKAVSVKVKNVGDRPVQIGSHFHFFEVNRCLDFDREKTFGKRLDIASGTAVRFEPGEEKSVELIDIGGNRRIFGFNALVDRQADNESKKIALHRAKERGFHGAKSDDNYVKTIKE
T1 sequence (P69996 whole entry): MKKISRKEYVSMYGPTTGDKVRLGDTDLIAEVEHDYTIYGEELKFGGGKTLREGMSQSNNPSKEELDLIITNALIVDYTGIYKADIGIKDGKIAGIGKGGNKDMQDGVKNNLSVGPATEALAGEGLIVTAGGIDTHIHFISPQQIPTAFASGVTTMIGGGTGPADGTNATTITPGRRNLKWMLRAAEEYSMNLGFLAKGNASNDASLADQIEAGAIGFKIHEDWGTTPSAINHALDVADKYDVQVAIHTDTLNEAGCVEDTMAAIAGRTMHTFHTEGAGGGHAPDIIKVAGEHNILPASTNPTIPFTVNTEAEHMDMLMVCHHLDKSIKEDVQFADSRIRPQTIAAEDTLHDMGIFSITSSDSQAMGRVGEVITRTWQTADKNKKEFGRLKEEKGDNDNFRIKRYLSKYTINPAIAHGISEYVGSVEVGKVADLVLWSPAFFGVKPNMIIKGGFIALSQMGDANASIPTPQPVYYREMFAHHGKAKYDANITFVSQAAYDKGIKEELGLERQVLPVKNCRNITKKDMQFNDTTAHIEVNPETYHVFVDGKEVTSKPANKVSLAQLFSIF
Procedure: H. pylori was inoculated in Campylobacter agar and grown on Columbia agar with appropriate bovine serum albumin at 37°C, 98% humidity, and low aerobic conditions (5% O2, 10% CO2, and 85% N2) for 72 hours. Three days later, H. pylori was collected by scraping and then suspended in phosphate buffered saline (PBS). Besides, the H. pylori concentration was calibrated to 1×10^8 CFU/mL by turbidimetric method. Standard HPU was extracted from H. pylori strain ATCC 43504 following the approach detailed by [Matsubara et al. (2003)]. The resulting HPU preparation represents a crude enzyme extract, which has been widely adopted for initial inhibitor screening studies ([Li et al., 2018]; [Tan et al., 2017]; [Yu et al., 2015]). All inhibition assays included appropriate controls (enzyme blanks and solvent controls) to ensure specific detection of urease activity.
(§1) The protein concentration of HPU was tested utilizing BCA protein detection kit. Standard urease test mixture consists of 150 mM urea in HEPES buffer (20 mM). HPU solution of varying concentrations was mixed with 150 mM urea as the substrate in a HEPES buffer (20 mM), and then reacted at 37 °C for 20 min. Urease vitality was assessed based on ammonia levels generated during the reaction. Ultimately, residual urease activity was measured by modified Berthelot (phenol hypochlorite) at 595 nm. This experiment was performed three times in parallel.
(§2) Test drug solution with equal volume and different concentration was mixed with urease and incubated in a 96-well plate at 37°C for 20 min. AHA was used as the positive control, while urease with urea (no depressor) served as the negative control. Moreover, urea solution (150 mM) was admixed and coincubated at ambient temperature for 20 min. Residual urease activity was measured via using the modified Berthelot method. The percentage of residual activity (RA%) was calculated as (A^sample - A^blank)/(A^negative control - A^blank)×100%, where A^blank represents the background absorbance without urease. Calculating the half-maximal inhibitory concentration (IC50) of the depressor to assess the impact of the test drug towards enzyme activity. Each experiment was conducted in triplicate for validation.

jack bean urease (JBU) [2] = molecular target: T2, jack bean urease (JBU) (Canavalia ensiformis, UniProt P07374); assay: biochemical; type: biochemical
T2 construct: purchased Sigma Aldrich
T2 sequence (P07374 whole entry, looked up): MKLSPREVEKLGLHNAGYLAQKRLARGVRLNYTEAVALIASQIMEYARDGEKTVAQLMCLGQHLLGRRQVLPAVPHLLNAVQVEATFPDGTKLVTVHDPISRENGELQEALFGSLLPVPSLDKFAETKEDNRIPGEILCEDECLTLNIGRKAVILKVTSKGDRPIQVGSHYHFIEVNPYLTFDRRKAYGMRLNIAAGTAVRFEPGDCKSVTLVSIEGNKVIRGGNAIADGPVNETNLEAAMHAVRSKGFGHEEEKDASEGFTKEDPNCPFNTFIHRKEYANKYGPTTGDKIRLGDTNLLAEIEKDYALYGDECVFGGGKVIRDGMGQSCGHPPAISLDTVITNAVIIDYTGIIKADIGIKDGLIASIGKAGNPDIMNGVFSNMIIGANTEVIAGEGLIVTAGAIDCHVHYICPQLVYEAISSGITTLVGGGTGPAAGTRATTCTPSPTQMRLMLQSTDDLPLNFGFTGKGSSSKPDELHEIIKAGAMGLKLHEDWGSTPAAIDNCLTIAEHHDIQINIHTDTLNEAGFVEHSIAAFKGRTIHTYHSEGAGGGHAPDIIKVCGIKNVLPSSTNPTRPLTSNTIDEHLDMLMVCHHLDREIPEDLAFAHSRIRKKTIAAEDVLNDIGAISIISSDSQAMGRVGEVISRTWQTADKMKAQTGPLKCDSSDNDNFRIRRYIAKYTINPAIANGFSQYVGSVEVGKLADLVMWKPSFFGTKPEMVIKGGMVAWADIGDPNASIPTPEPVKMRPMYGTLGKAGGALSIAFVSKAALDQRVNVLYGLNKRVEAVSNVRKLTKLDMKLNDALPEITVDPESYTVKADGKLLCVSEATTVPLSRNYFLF
Text: Campylobacter agar medium was purchased from Thermo Fisher Scientific. Acetylhydroxamic acid (AHA), jack bean urease (JBU, type III with specific activity 40.3 U/mg solid) and urea were obtained from Sigma Aldrich. Boric acid (BA) and sodium fluoride (NaF) were purchased from Maclin (Shanghai, China). Dithiothreitol (DTT) and L-cysteine (L-cys) were obtained from Solaibao (Beijing, China). Glutathione (GSH) was obtained from Meilun (Dalian, China). HEPES (Amresco >99%) was from BioFroxx. All chemicals and reagents were of analytic purity.
as §1, §2

[3] = system: H. pylori strains (ATCC 43504, NCTC 26695, ICDC 111001); assay: Minimal inhibitory concentration assay (agar dilution method); type: cell-based; conditions: Helicobacter pylori, H. pylori strain ICDC 111001
H. pylori urease (HPU) [4] = molecular target: T1, H. pylori urease (HPU); assay: biochemical; type: biochemical, H. pylori strain ATCC 43504; remark: listed apart in the source
Procedure: Residual urease activity was determined by pre-incubating test drug, urease mixture with a series of urea concentrations. Michaelis constant (KM ) and maximum velocity (vmax ) values are obtained from the Lineweaver-Burk plots of 1/v and 1/urea by plotting the reciprocal reaction velocity and substrate concentration. Variation characteristics of urease kinetic parameters KM and vmax were analyzed by adding different concentrations of test products to determine the type of inhibiting effect on HPU. Each sample was performed in triplicate.

jack bean urease (JBU) [5] = molecular target: T2, jack bean urease (JBU); assay: biochemical; type: biochemical; remark: listed apart in the source

Compound: CC(=O)NO [AHA, Acetylhydroxamic acid, reference compound]
- IC50 (H. pylori urease (HPU) [1]; HPU, positive control): 4.93 ± 0.11 µg/mL
- IC50 (jack bean urease (JBU) [2]; JBU, positive control): 1.56 ± 0.10 µg/mL

Compound: Cc1ncc([N+](=O)[O-])n1CCO [Metronidazole]
- MIC [3]: 2 µg/mL (≈ 11.7 µM)
- MIC ([3]; pH 7.2): 2 µg/mL (≈ 11.7 µM)

Compound: C[C@@H]1O[C@@H](O[C@H]2C(=O)c3c(O)cc(O)cc3O[C@@H]2c2ccc(O)c(O)c2)[C@H](O)[C@H](O)[C@H]1O [astilbin]
- IC50 (H. pylori urease (HPU) [1]): 1.47 ± 0.01 mM
- Strength of urease inhibition relative to engeletin (H. pylori urease (HPU) [1]; urease, HPU/JBU not given): more than three times as strongly
- IC50 (jack bean urease (JBU) [2]): 2.22 ± 0.02 mM
- Ki (H. pylori urease (HPU) [4]): 0.87 ± 0.01 mM
- Kis (H. pylori urease (HPU) [4]; HPU): 0.87 ± 0.01 mM
- Inhibition type (H. pylori urease (HPU) [4]; HPU, Lineweaver-Burk analysis): non-competitive
- Ki (jack bean urease (JBU) [5]): 0.2 ± 0.01 mM
- Kis (jack bean urease (JBU) [5]; JBU): 1.17 ± 0.10 mM
- Inhibition type (jack bean urease (JBU) [5]; JBU, Lineweaver-Burk analysis): mixed

Compound: C[C@@H]1O[C@@H](O[C@H]2C(=O)c3c(O)cc(O)cc3O[C@@H]2c2ccc(O)cc2)[C@H](O)[C@H](O)[C@H]1O [engeletin]
- IC50 (H. pylori urease (HPU) [1]): 5.89 ± 0.01 mM
- IC50 (jack bean urease (JBU) [2]): 6.67 ± 0.01 mM
